{
  "source": "patent US20260097043A1",
  "about": "“NOVEL FORMULATIONS AND VEHICLES” (WisTa Laboratories Ltd., priority 2022, published 2026)",
  "key": {"[1]": {"details": "Baddeley et al., 2015, cited from earlier work"}, "[2]": {"test_system": "huntingtin derivative containing a polyglutamine stretch of 102 residues", "details": "tested at 0, 10 and 100 μM; zebrafish; van Bebber et al. 2010; cited from earlier work"}, "TDP-43": {"test_system": "TDP-43", "details": "0.05 μM MT; SH-SY5Y cells; Yamashita et al 2009; cited from earlier work"}, "[3]": {"details": "4 mg twice weekly; prior-filed PCT/EP2023/064369; cited from earlier work"}, "[4]": {"type": "in vivo, human", "details": "4 mg MTC approximately twice weekly; MCI to moderate AD", "method": "Prior-filed PCT/EP2023/064369 (Example 3) describes the structure of a phase 3 clinical trial in mild to moderate AD in which different arms of participants were treated with MTC and LMTM respectively. This was a Phase 3, randomized, double-blind, outpatient trial to evaluate the safety, efficacy, and tolerability of LMTM in participants with severity ranging from mild cognitive impairment (MCI) to moderate AD. The MTC minipill was intended as a urinary discolourant placebo (in combination with a true placebo i.e. a blank minipill lacking any MTC or LMTM). […] Of patients receiving MTC 4 mg twice weekly, the majority (85%) were unexpectedly found to have blood levels of active drug above the threshold needed to produce a clinical effect."}},
  "data": [
    {"compound": "CN(C)c1ccc2c(c1)Sc1cc(N(C)C)ccc1N2", "note": "[LMTM, leuco-methylthioninium bis(hydromethanesulfonate)]", "values": [
      {"measurement": "pharmaceutic properties (solubility and pKa)", "setting": "[1]", "value": "superior pharmaceutic properties in terms of solubility and pKa"},
      {"measurement": "absorption limitations", "setting": "[1]; compared with the MT+ form", "value": "not subject to the absorption limitations of the MT^+ form"}
    ]},
    {"compound": "CN(C)c1ccc2nc3ccc(N(C)C)cc3[s+]c2c1", "note": "[MT, N3,N3,N7,N7-tetramethylphenothiazin-5-ium-3,7-diamine]", "values": [
      {"measurement": "formation of huntingtin polyglutamine aggregates", "setting": "[2]", "value": "prevented the formation of such aggregates in zebrafish in a dose dependent manner"},
      {"measurement": "reduction of the number of TDP-43 aggregates", "setting": "TDP-43", "value": 50, "unit": "%"}
    ]},
    {"compound": "CN(C)c1ccc2nc3ccc(N(C)C)cc3[s+]c2c1", "note": "[MTC, 3,7-bisdimethylaminophenazothionium chloride]", "values": [
      {"measurement": "therapeutic benefits in treating Alzheimer's disease", "setting": "[3]", "value": "showed therapeutic benefits"},
      {"measurement": "clinical benefit", "setting": "[4]", "value": "showed clinical benefit"}
    ]}
  ]
}
